# Measured values published in article PMC6220303 (EMBO Molecular Medicine, 2018).
# Tests used:
# [1] = Shelf life of the clinical capsule form; format: physicochemical; conditions: kept refrigerated
# [2] = system: APP23 mice; conditions: APP23, mouse, in vivo, 3 months
# [3] = system: APP23‐transgenic mice; assay: Chronic treatment of APP23-transgenic mice, 6 months in food; format: in vivo, mouse
# Protocol: The total amount of Aβ40 and Aβ42 in formic acid‐solubilized forebrain was determined by Aβ immunoassay. […] Next, we investigated the effects of long‐term Aβ reduction on downstream pathology relevant for Alzheimer's disease, in particular neuroinflammation. Specifically, we used double‐immunofluorescence staining with NT12+anti‐Iba1 and NT12+anti‐GFAP to examine the number and localization of microglia and activated astrocytes, respectively (Fig 4E). […] The reason for the different sensitivity of microglia and astrocytes distant to plaques is currently not clear.
# Electrochemiluminescence immunoassays (Mesoscale Diagnostics, Rockville, MD, USA) were used to determine Aβ38, Aβ40, Aβ42, sAPPα, and sAPPβ. For studies in normal mice and rats, the endogenous Aβ40 was extracted from the brain homogenate with 1% Triton X‐100, and the 4G8‐based assay kit was used for quantification according to the manufacturer's instructions. CSF was collected from the cisterna magna and also analyzed using the 4G8 kit. For studies in dogs, CSF was collected via a ventricular port, and the 6E10‐based Mesoscale Diagnostics kit for Aβ was used. For studies in APP23 mice, Aβ40 and Aβ42 were determined after extraction with 70% formic acid and subsequent neutralization.
# Amyloid plaques were stained using the Novartis-internal rabbit anti-Aβ antibody NT12, which recognizes all forms of Aβ (Neumann et al, 2015). Activated astrocytes were detected using a commercial rabbit anti-GFAP (Z0334, Dako Schweiz GmbH, Baar, Switzerland, dilution 1:2000 in antibody diluent). Microglia cells were detected using a rabbit anti-Iba1 antibody (019-19741, Wako Chemicals GmbH, Neuss, Germany, dilution 1:200 in antibody diluent). All stainings were performed using the fully automated instrument Ventana Discovery® Ultra (Roche Diagnostics Schweiz AG, Rotkreuz, Switzerland). All chemicals were provided by Roche Diagnostic. Paraffin-embedded brain tissue sections of 3 µm were freshly cut and collected on SuperFrost+ slides. The tissues sections were de-paraffinized and rehydrated under solvent-free conditions (EZprep solution) followed by antigen retrieval (demasking) performed by heat retrieval cycles for 32 min in EDTA-based buffer (CC1 solution). Subsequently, slides were blocked for 4 min using the DISC Inhibitor RUO (reference 07017944001). The primary antibody anti-NT12 diluted at 1:20 000 in antibody diluent was manually added to tissue sections and incubated for 1h at room temperature. A short post-fixation (glutaraldehyde at 0.05%) was done before applying the […]
# Detection was performed using the DISCOVERY FITC® following the manufacturer’s recommendations. Slides were then heat denaturated at 92°C for 20 min before a manual application of the second primary antibody (anti-GFAP diluted at 1:2000, anti-Iba1 diluted at 1:200) and incubated for 1h at room temperature. Sections were then incubated for 20 min at room temperature with UltraMap-anti-Rabbit HRP antibody, and the DISCOVERY Rhodamine kit […]
# The slides were washed and mounted using Prolong® Gold antifade reagent (P36931, ThermoFisher, Switzerland) and further scanned with the Hamamatsu slide scanner instrument […]
# (NanoZoomer 2.0 HT, scanning software NDP-Scan Version 2.5, Hamamatsu Photonics France, Swiss Office, Solothurn, Switzerland) at the 40x objective. The scanning settings were as follow: the exposure time with the DAPI filter was set at 57 ms, as was the FITC filter. The exposure time for the TRITC filter (detection of Rhodamine) was set at 14.2 ms.
# For the quantitative plaque and blood vessel-associated Aβ evaluation based on image analysis, a proprietary image analysis platform (ASTORIA, Automated Stored Image Analysis) was developed based on MS Visual Studio 2010 and many functions from Matrox MIL V9 libraries (Matrox Inc, Quebec, Canada).
# For the Aβ plaque, neuroinflammation and blood vessel analyses, the following sequence of steps was performed. (1) Slides were scanned with Hamamatsu Nanozoomer at 40x […]
# magnification. […]
# [4] = system: CSF Aβ40 and sAPPβ; assay: Human CSF APP metabolites after single dose (serial CSF sampling); format: in vivo
# Description: We investigated CSF Aβ and sAPPβ levels in humans by serial CSF sampling via an intrathecal catheter. […] Under these conditions, where Aβ production has completely stopped, the curves most likely reflect the rate of physiological clearance of Aβ40 and sAPPβ from human CSF.
# (A) Changes in Aβ40 relative to baseline values. (B) Changes in sAPPβ relative to baseline values.
# Human CSF was collected from an indwelling spinal catheter inserted into the lower spinal canal (in the single ascending dose (SAD) PD first in human (FIH) study) or by a lumbar puncture (in the multiple ascending dose (MAD) PD Phase I study and Phase IIa study), and by trained personnel at the site and as per their standard operating procedure (SOP). CSF Aβ38, Aβ40, Aβ42, sAPPα, and sAPPβ were quantified in human CSF with 0.2% (v/v) Tween®‐20 using validated sandwich‐based multiplexed electrochemiluminescence methods (MesoScale Discovery, […], MD, USA).
# [5] = format: in vivo; conditions: rat, 15.4 mg/kg oral
# [6] = system: dogs; assay: Long-term toxicology studies in dogs; format: in vivo, dog
# Protocol: In long‐term toxicology studies, dose‐limiting non‐specific central nervous system (CNS) effects (including impaired mobility and tremor) occurred in dogs at ≥ 30 mg/kg/day and in male rats (adverse effects only observed at doses ≥ 500 mg/kg/day). […] After CNP520 withdrawal, all changes either trended toward being, or were, fully reversible. The organs that were affected by drug toxicity in these animal studies either were not relevant to the clinical target population or the toxicities occurred at a dose substantially higher than the efficacious clinical dose.
# In vivo animal toxicity studies were performed according to ICH guidance for industry M3(R2) and conformed to the Institutional Animal Care and Use Guidelines for the contract laboratory and sponsor. […] Recovery was assessed after a 12‐week treatment‐free period. Beagle dogs from Marshall BKU UK, 11 months of age, were given 0 (vehicle), 5, 15, or 30 mg/kg/day for 39 weeks. Vehicle consisted of 0.5% (w/v) methylcellulose (1,500 cPS) in 0.1% (v/v) polysorbate 80 (Tween®‐80) in reverse osmosis water. At necropsy, tissues were immersion fixed in 10% neutral‐buffered formalin or modified Davidson's solution and then processed by routine methods to paraffin block and hematoxylin–eosin (H&E)‐stained histologic slides.
# [7] = after a 750 mg CNP520 dose, n=6
smiles,measurement,setting,value
C[C@@]1(c2nc(NC(=O)c3ncc(C(F)(F)F)cc3Cl)ccc2F)CO[C@@](C)(C(F)(F)F)C(N)=N1 [CNP520],shelf life of the capsule form,[1],24 months
same,Hemorrhage (H & E staining) % affected,[2],7%
same,"Hemorrhage (H & E staining) Grade 1, number of animals affected",[2],1
same,"Hemorrhage (H & E staining) Grade 2, number of animals affected",[2],0
same,Hemosiderin (Perl’s staining) % affected,[2],47%
same,"Hemosiderin (Perl’s staining) Grade 1, number of animals affected",[2],7
same,"Hemosiderin (Perl’s staining) Grade 2, number of animals affected",[2],0
same,CNP520 concentration in blood and brain at end of study,[3]; 4 and 40 mg/kg/day in food,approximately dose‐proportional
same,total Aβ-plaque area in the cortex (normalized to sample area) compared with vehicle,"[3]; 4 and 40 mg/kg/day in food, 6 months, dose-dependent",decreased
same,sAPPα in mouse brain,[3]; 6 months,increased
same,increase in GFAP-stained astrocytes,"[3]; 6 months, dose-dependent",prevented this increase
same,sAPPβ in mouse brain,"[3]; 6 months, dose-dependent",decreased
same,formic acid-soluble Aβ40 and Aβ42 in forebrain compared with vehicle,"[3]; high dose 40 mg/kg/day, 6 months",profoundly reduced
same,effect on CAA (vascular Aβ) in APP23 mice,"[3]; separate study, first data, authors' response in review file",reduction of vascular Aβ
same,maximum reduction in CSF Aβ40 from baseline,"[4]; 750-mg single dose, mean ± SD",79.1 ± 8.9%
same,"first-order rate constant k, Aβ40 in human CSF",[4]; [7],0.068 ± 0.002 h⁻¹
same,"first-order rate constant k, sAPPβ in human CSF",[4]; [7],0.043 ± 0.004 h⁻¹
same,peak concentration of unbound CNP520 in the brain,[5],50 nM
same,No Adverse Effect Level,"[6]; dog, authors' response in review file",30 mg/kg/day
same,"dose with dose-limiting non-specific CNS effects (impaired mobility, tremor)","[6]; dogs, long-term toxicology",≥ 30 mg/kg/day
